Results as given in patent publication EP0956028B1, “[…] INHIBITION OF […] GROWTH” (Purdue Research Foundation, priority 1996, dated 1998).

Tested on: A549 human lung carcinoma cells
Assay: Tumor cell proliferation (cell count), indirect co-culture with submucosal tissue membrane
Assay type: cell-based
Experimental: Carcinoma ceil lines including A549 (human lung adenocarcinoma), MCF-7 (human breast carcinoma) and human colorectal carcinoma cell lines were obtained from American Type Cell Culture (ATCC). Cell cultures were routinely performed at 37°C in an incubator supplemented with 5% CO2 and 95% air. Media used were F-12 pius 10° o FBS (fetal bovine serum) (Gibco BRL) for the A549 cells and RPMI plus 10% FBS (Gibco BRL) for both the MCF-7 and colonic carcinoma cell lines. The inhibition of tumor cell growth on several different forms of submucosal tissue including PA-ST (submucosal tissue sterilized in peracetic acid), Native submucosal tissue (no further treatment after dissection), Gamma irradiated submucosal tissue and solubilized submucosal tissue was assessed.
Cancer cells were cultured in the presence of various forms of intestinal submucosal tissue at 37°C in an incubator supplemented with 5% CO2 and 95% air using the following procedures: • 1. Direct Contact: Intestinal submucosal tissue and the cultured cells physically contact one another. • 2. Indirect Contact: Intestinal submucosal tissue and the cultured cells are separated by a stainless steel mesh. • 3. Solubilized intestinal submucosal tissue added to the culture media. • 4. Cells are cultured on solubilized intestinal submucosa coated culture plate. The coating was applied by placing 1 ml of solubilized intestinal submucosal tissue in a 35mm culture plate, heating at 37°C for 2 hours, removing the excess intestinal submucosal tissue fluid by aspiration and washing the coated plates once with culture media.
• 1. […]
Tumor cells were plated at a cell density of approximately 5x10^5 cells/dish of 60 mm tissue culture dishes and grown until they reached about 50% confluence. Cell cultures were then subjected to the following treatments in triplicates: 1) control, cells grown in media only; 2) addition of different quantities of solubilized submucosal tissue (200-800 µl); 3) co-culture with submucosal tissue membranes of different sizes (indirect co-culture). […]

SMILES: CC(=O)OO [Peracidic Acid, peracetic acid]
- Cell Count (x10^5) (day 2 of treatment) (100 µl of Peracidic Acid, A549): 18.81 ± 2.59 x10^5
- % of Control (100 µl of Peracidic Acid, A549 cell count, day 2 of treatment): 97%
- inhibitory effect on cell proliferation (added exogenously to tumor cells): no significant inhibitory effect
